The target in the series is RHOQ. Put plainly: reporter assay of Huesken 2005. The settings on record: siRNA. Background: Reporter assays use an easily measured gene product as a stand-in for the process of interest.

Oligonucleotides are written 5' to 3', each unit as a sugar letter and its base; * is a phosphorothioate linkage, no mark a phosphodiester; rarer units and linkages stand in square brackets, end groups in braces. Plain capitals give the bases only. d = 2'-deoxy (DNA); r = 2'-OH (RNA)
Note: test concentration or dose not given here.

Substance “sense rUrUrCrCrArArGrArArArUrGrGrUrGrGrUrUrCdTdT / antisense rGrArArCrCrArCrCrArUrUrUrCrUrUrGrGrArAdGdA” had a normalised inhibition (eCFP-eYFP dual reporter) of 38.3%. Substance “sense rArUrArArArUrCrArArUrUrArArCrArUrArUrUdTdT / antisense rArArUrArUrGrUrUrArArUrUrGrArUrUrUrArUdAdC” yielded a normalised inhibition (eCFP-eYFP dual reporter) of 38.4%. The substance “sense rArUrArArArArUrUrGrArArArGrGrArArUrUrGdTdT / antisense rCrArArUrUrCrCrUrUrUrCrArArUrUrUrUrArUdCdT” yielded a normalised inhibition (eCFP-eYFP dual reporter) of 36.4%. To “sense rUrArUrGrCrCrArUrGrCrArUrCrArGrArUrArAdTdT / antisense rUrUrArUrCrUrGrArUrGrCrArUrGrGrCrArUrAdTdG” belongs 75.7%. As for “sense rCrUrGrGrArUrGrArCrUrGrGrCrCrArGrGrArAdTdT / antisense rUrUrCrCrUrGrGrCrCrArGrUrCrArUrCrCrArGdTdA”, the normalised inhibition (eCFP-eYFP dual reporter) amounted to 75.7%. With “sense rUrCrGrGrArCrArUrUrUrGrGrArUrGrUrCrUrUdTdT / antisense rArArGrArCrArUrCrCrArArArUrGrUrCrCrGrAdTdT”, the normalised inhibition (eCFP-eYFP dual reporter) is 83%. Regarding “sense rGrGrArUrGrUrCrUrUrCrUrUrUrCrUrUrCrCrAdTdT / antisense rUrGrGrArArGrArArArGrArArGrArCrArUrCrCdAdA”, the normalised inhibition (eCFP-eYFP dual reporter) turned out to be 83.2%. With “sense rUrGrUrGrGrArUrCrUrGrCrCrUrUrArUrUrGrCdTdT / antisense rGrCrArArUrArArGrGrCrArGrArUrCrCrArCrAdGdC”, the normalised inhibition (eCFP-eYFP dual reporter) was 68.8%. “sense rArArArUrCrArArUrUrArArCrArUrArUrUrArGdTdT / antisense rCrUrArArUrArUrGrUrUrArArUrUrGrArUrUrUdAdT” showed a normalised inhibition (eCFP-eYFP dual reporter) of 46.2%. To “sense rUrCrUrUrArUrUrUrArArUrUrUrUrGrGrUrCrUdTdT / antisense rArGrArCrCrArArArArUrUrArArArUrArArGrAdAdA” belongs 44.2%; to “sense rUrGrArArArArUrGrArCrArGrCrCrUrUrArArAdTdT / antisense rUrUrUrArArGrGrCrUrGrUrCrArUrUrUrUrCrAdAdG”, 78.8%. “sense rUrGrCrArUrCrArGrArUrArArUrGrGrUrGrUrUdTdT / antisense rArArCrArCrCrArUrUrArUrCrUrGrArUrGrCrAdTdC” displayed a normalised inhibition (eCFP-eYFP dual reporter) of 61.6%. Substance “sense rGrCrArUrCrArGrArUrArArUrGrGrUrGrUrUrAdTdT / antisense rUrArArCrArCrCrArUrUrArUrCrUrGrArUrGrCdAdT” gave a normalised inhibition (eCFP-eYFP dual reporter) of 92.8%. “sense rArGrArUrUrGrGrGrUrArArUrGrGrArArCrArCdTdT / antisense rGrUrGrUrUrCrCrArUrUrArCrCrCrArArUrCrUdGdT” had a normalised inhibition (eCFP-eYFP dual reporter) of 72%. “sense rUrGrUrGrArArCrArArCrCrUrArArUrGrCrArUdTdT / antisense rArUrGrCrArUrUrArGrGrUrUrGrUrUrCrArCrAdAdT”: the normalised inhibition (eCFP-eYFP dual reporter) turned out to be 75.4%.

“sense rUrGrUrArUrGrUrGrArGrCrUrUrUrGrUrArGrAdTdT / antisense rUrCrUrArCrArArArGrCrUrCrArCrArUrArCrAdAdC”: the normalised inhibition (eCFP-eYFP dual reporter) is 75.3%.

On to “sense rCrUrArCrArUrUrUrArArArCrUrUrGrCrUrGrUdTdT / antisense rArCrArGrCrArArGrUrUrUrArArArUrGrUrArGdGdA”, for which the normalised inhibition (eCFP-eYFP dual reporter) was found to be 82.5%. “sense rArUrCrArGrUrCrArCrArArArUrCrUrArGrGrAdTdT / antisense rUrCrCrUrArGrArUrUrUrGrUrGrArCrUrGrArUdAdT” returned a normalised inhibition (eCFP-eYFP dual reporter) of 75.3%. The substance “sense rArArArUrGrArCrArGrCrCrUrUrArArArUrGrCdTdT / antisense rGrCrArUrUrUrArArGrGrCrUrGrUrCrArUrUrUdTdC” showed a normalised inhibition (eCFP-eYFP dual reporter) of 42.3%.

Take “sense rArUrGrGrArArCrArCrUrArArArCrUrUrUrUrAdTdT / antisense rUrArArArArGrUrUrUrArGrUrGrUrUrCrCrArUdTdA”: the normalised inhibition (eCFP-eYFP dual reporter) turned out to be 82.1%.

The substance “sense rUrArCrUrGrGrArUrGrArCrUrGrGrCrCrArGrGdTdT / antisense rCrCrUrGrGrCrCrArGrUrCrArUrCrCrArGrUrAdGdA” returned a normalised inhibition (eCFP-eYFP dual reporter) of 55.2%. To “sense rCrUrUrArUrUrUrArArUrUrUrUrGrGrUrCrUrGdTdT / antisense rCrArGrArCrCrArArArArUrUrArArArUrArArGdAdA” belongs 52.2%; to “sense rUrUrArArUrUrCrArCrArUrGrArCrUrUrGrArGdTdT / antisense rCrUrCrArArGrUrCrArUrGrUrGrArArUrUrArAdCdA”, 54.4%; to “sense rUrGrCrArUrUrUrUrArGrArGrArArArCrArArUdTdT / antisense rArUrUrGrUrUrUrCrUrCrUrArArArArUrGrCrAdTdT”, 84.9%. “sense rUrArGrCrUrArUrGrUrCrUrArCrUrGrCrArCrAdTdT / antisense rUrGrUrGrCrArGrUrArGrArCrArUrArGrCrUrAdTdA” yielded a normalised inhibition (eCFP-eYFP dual reporter) of 86.8%. As to “sense rArArArUrGrGrUrGrGrUrUrCrArCrArUrUrArAdTdT / antisense rUrUrArArUrGrUrGrArArCrCrArCrCrArUrUrUdCdT”, the normalised inhibition (eCFP-eYFP dual reporter) was found to be 85.8%.

The substance “sense rCrArUrUrUrGrGrArUrGrUrCrUrUrCrUrUrUrCdTdT / antisense rGrArArArGrArArGrArCrArUrCrCrArArArUrGdTdC” gave a normalised inhibition (eCFP-eYFP dual reporter) of 73.6%. For “sense rArUrGrGrArArUrCrUrUrArUrGrUrArArCrUrUdTdT / antisense rArArGrUrUrArCrArUrArArGrArUrUrCrCrArUdTdT”, the normalised inhibition (eCFP-eYFP dual reporter) stood at 51.1%. Regarding “sense rArGrGrArUrGrUrArCrUrGrUrCrUrUrGrUrUrGdTdT / antisense rCrArArCrArArGrArCrArGrUrArCrArUrCrCrUdAdG”, the normalised inhibition (eCFP-eYFP dual reporter) worked out at 81.7%. To “sense rCrArGrArUrArArUrGrGrArUrGrCrArUrCrArGdTdT / antisense rCrUrGrArUrGrCrArUrCrCrArUrUrArUrCrUrGdAdT” belongs 80.4%; to “sense rUrArArArGrUrArUrCrArUrGrGrCrCrUrUrArUdTdT / antisense rArUrArArGrGrCrCrArUrGrArUrArCrUrUrUrAdAdT”, 75.9%; to “sense rCrArGrArUrUrGrGrGrUrArArUrGrGrArArCrAdTdT / antisense rUrGrUrUrCrCrArUrUrArCrCrCrArArUrCrUrGdTdG”, 86.3%. “sense rUrArUrArGrCrUrArUrGrUrCrUrArCrUrGrCrAdTdT / antisense rUrGrCrArGrUrArGrArCrArUrArGrCrUrArUrAdAdG” registered a normalised inhibition (eCFP-eYFP dual reporter) of 77.6%. The figure for “sense rUrUrGrArArArArUrGrArCrArGrCrCrUrUrArAdTdT / antisense rUrUrArArGrGrCrUrGrUrCrArUrUrUrUrCrArAdGdT” is 87.1%; for “sense rCrArCrArUrUrArArArGrUrArUrCrArUrGrGrCdTdT / antisense rGrCrCrArUrGrArUrArCrUrUrUrArArUrGrUrGdAdA” it is 62.4%; for “sense rUrCrArCrArUrGrArCrUrUrGrArGrCrUrUrArUdTdT / antisense rArUrArArGrCrUrCrArArGrUrCrArUrGrUrGrAdAdT” it is 87%. “sense rArArUrArUrArArGrCrArUrCrArCrCrUrUrCrCdTdT / antisense rGrGrArArGrGrUrGrArUrGrCrUrUrArUrArUrUdTdT” had a normalised inhibition (eCFP-eYFP dual reporter) of 51.8%. “sense rGrArGrArGrUrCrUrArCrUrGrGrArUrGrArCrUdTdT / antisense rArGrUrCrArUrCrCrArGrUrArGrArCrUrCrUrCdTdC” registered a normalised inhibition (eCFP-eYFP dual reporter) of 77.3%. The figure for “sense rArCrUrUrUrCrUrUrArUrUrUrArArUrUrUrUrGdTdT / antisense rCrArArArArUrUrArArArUrArArGrArArArGrUdTdA” is 43.6%; for “sense rUrUrGrUrGrArArCrArArCrCrUrArArUrGrCrAdTdT / antisense rUrGrCrArUrUrArGrGrUrUrGrUrUrCrArCrArAdTdG” it is 83%; for “sense rArUrCrUrUrArUrGrUrArArCrUrUrUrCrUrUrAdTdT / antisense rUrArArGrArArArGrUrUrArCrArUrArArGrArUdTdC” it is 59.1%. To “sense rUrGrCrCrArUrGrCrArUrCrArGrArUrArArUrGdTdT / antisense rCrArUrUrArUrCrUrGrArUrGrCrArUrGrGrCrAdTdA” belongs 59.7%.

For the substance “sense rCrArUrUrUrArArArCrUrUrGrCrUrGrUrUrGrCdTdT / antisense rGrCrArArCrArGrCrArArGrUrUrUrArArArUrGdTdA”, the normalised inhibition (eCFP-eYFP dual reporter) stood at 74.6%. To “sense rCrCrUrUrArUrGrUrArUrGrCrUrCrArArArUrGdTdT / antisense rCrArUrUrUrGrArGrCrArUrArCrArUrArArGrGdCdC” belongs 65.1%; to “sense rUrGrArArUrCrGrGrArCrArUrUrUrGrGrArUrGdTdT / antisense rCrArUrCrCrArArArUrGrUrCrCrGrArUrUrCrAdGdA”, 38.9%.

On to “sense rCrArUrGrCrArUrCrArGrArUrArArUrGrGrArUdTdT / antisense rArUrCrCrArUrUrArUrCrUrGrArUrGrCrArUrGdGdC”, for which the normalised inhibition (eCFP-eYFP dual reporter) was determined as 72.3%.

“sense rArUrGrGrArUrGrCrArUrCrArGrArUrArArUrGdTdT / antisense rCrArUrUrArUrCrUrGrArUrGrCrArUrCrCrArUdTdA” returned a normalised inhibition (eCFP-eYFP dual reporter) of 82.5%.

The substance “sense rUrGrCrUrGrUrUrGrCrCrCrArArArUrUrArUrAdTdT / antisense rUrArUrArArUrUrUrGrGrGrCrArArCrArGrCrAdAdG” returned a normalised inhibition (eCFP-eYFP dual reporter) of 85.6%. The substance “sense rCrUrGrUrGrGrArUrCrUrGrCrCrUrUrArUrUrGdTdT / antisense rCrArArUrArArGrGrCrArGrArUrCrCrArCrArGdCdA” registered a normalised inhibition (eCFP-eYFP dual reporter) of 79%.

(Values after the OligoGym collection.)
